assay: Inhibitory activity against Translocase I

| Compound | IC50 [nM] |
| --- | --- |
| NC[C@H]1O[C@@H](O[C@@H](CNCc2cccnc2)[C@@H]2C[C@@H](O)[C@H](n3ccc(=O)[nH]c3=O)O2)[C@H](O)[C@@H]1O | 4800 |
| CN1CCCC1CNC[C@H](O[C@@H]1O[C@H](CN)[C@@H](O)[C@H]1O)[C@@H]1C[C@@H](O)[C@H](n2ccc(=O)[nH]c2=O)O1 (stereo not given in full) | 1300 |
| NC[C@H]1O[C@@H](O[C@@H](CNCC2COc3ccccc3O2)[C@@H]2C[C@@H](O)[C@H](n3ccc(=O)[nH]c3=O)O2)[C@H](O)[C@@H]1O (stereo not given in full) | 2800 |
| NC[C@H]1O[C@@H](O[C@@H](CN2CCCCC2)[C@@H]2C[C@@H](O)[C@H](n3ccc(=O)[nH]c3=O)O2)[C@H](O)[C@@H]1O | 5900 |
| COC(=O)c1ccc(CNC[C@H](O[C@@H]2O[C@H](CN)[C@@H](O)[C@H]2O)[C@@H]2C[C@@H](O)[C@H](n3ccc(=O)[nH]c3=O)O2)cc1 | 1200 |
| NC[C@H]1O[C@@H](OC[C@H]2O[C@@H](n3ccc(=O)[nH]c3=O)[C@H](O)[C@@H]2O)[C@H](O)[C@@H]1O | 50000 |
| NC[C@H]1O[C@@H](O[C@@H](CNC(=O)c2cccc(OC(F)(F)F)c2)[C@@H]2C[C@@H](O)[C@H](n3ccc(=O)[nH]c3=O)O2)[C@H](O)[C@@H]1O | 1000 |
| NC[C@H]1O[C@@H](O[C@@H](CNCc2cccs2)[C@@H]2C[C@@H](O)[C@H](n3ccc(=O)[nH]c3=O)O2)[C@H](O)[C@@H]1O | 2300 |
| NC[C@H]1O[C@@H](O[C@@H](CO)[C@H]2O[C@@H](n3ccc(=O)[nH]c3=O)[C@H](O)[C@@H]2O)[C@H](O)[C@@H]1O | 5000 |
| NC[C@H]1O[C@@H](O[C@@H](CNCCc2ccccc2)[C@@H]2C[C@@H](O)[C@H](n3ccc(=O)[nH]c3=O)O2)[C@H](O)[C@@H]1O | 1600 |
| NC[C@H]1O[C@@H](O[C@@H](CNCc2ccc(C(=O)O)cc2)[C@@H]2C[C@@H](O)[C@H](n3ccc(=O)[nH]c3=O)O2)[C@H](O)[C@@H]1O | 6500 |
| NC[C@H]1O[C@@H](O[C@@H](CNCCCN2CCOCC2)[C@@H]2C[C@@H](O)[C@H](n3ccc(=O)[nH]c3=O)O2)[C@H](O)[C@@H]1O | 3800 |
| NC[C@H]1O[C@@H](O[C@@H](CNCc2ccncc2)[C@@H]2C[C@@H](O)[C@H](n3ccc(=O)[nH]c3=O)O2)[C@H](O)[C@@H]1O | 3400 |
| NC[C@H]1O[C@@H](O[C@@H](CNCCCN2CCCC2=O)[C@@H]2C[C@@H](O)[C@H](n3ccc(=O)[nH]c3=O)O2)[C@H](O)[C@@H]1O | 7000 |
| NC[C@H]1O[C@@H](O[C@@H](CNCCCn2ccnc2)[C@@H]2C[C@@H](O)[C@H](n3ccc(=O)[nH]c3=O)O2)[C@H](O)[C@@H]1O | 3800 |
| NC[C@H]1O[C@@H](O[C@@H](CNCC2CCCO2)[C@@H]2C[C@@H](O)[C@H](n3ccc(=O)[nH]c3=O)O2)[C@H](O)[C@@H]1O (stereo not given in full) | 9200 |
| CN1CCCC1CCNC[C@H](O[C@@H]1O[C@H](CN)[C@@H](O)[C@H]1O)[C@@H]1C[C@@H](O)[C@H](n2ccc(=O)[nH]c2=O)O1 (stereo not given in full) | 3900 |
| COc1ccc(CNC[C@H](O[C@@H]2O[C@H](CN)[C@@H](O)[C@H]2O)[C@@H]2C[C@@H](O)[C@H](n3ccc(=O)[nH]c3=O)O2)cc1OC | 4000 |
| CCCCCN(CCCCC)C[C@H](O[C@@H]1O[C@H](CN)[C@@H](O)[C@H]1O)[C@@H]1C[C@@H](O)[C@H](n2ccc(=O)[nH]c2=O)O1 | 9700 |
| NC[C@H]1O[C@@H](O[C@@H](CN2CCN(CC(=O)N3CCCC3)CC2)[C@@H]2C[C@@H](O)[C@H](n3ccc(=O)[nH]c3=O)O2)[C@H](O)[C@@H]1O | 1900 |

These reach a lower IC50. Values come first.

| IC50 [nM] | Compound |
| --- | --- |
| 740 | CCCCCCCNC[C@H](O[C@@H]1O[C@H](CN)[C@@H](O)[C@H]1O)[C@@H]1C[C@@H](O)[C@H](n2ccc(=O)[nH]c2=O)O1 |
| 610 | Cc1ccc(CCNC[C@H](O[C@@H]2O[C@H](CN)[C@@H](O)[C@H]2O)[C@@H]2C[C@@H](O)[C@H](n3ccc(=O)[nH]c3=O)O2)cc1 |
| 580 | CC(C)(C)c1ccc(CNC[C@H](O[C@@H]2O[C@H](CN)[C@@H](O)[C@H]2O)[C@@H]2C[C@@H](O)[C@H](n3ccc(=O)[nH]c3=O)O2)cc1 |
| 430 | NC[C@H]1O[C@@H](O[C@@H](CNC(=O)Cc2ccc(-c3ccccc3)cc2)[C@@H]2C[C@@H](O)[C@H](n3ccc(=O)[nH]c3=O)O2)[C@H](O)[C@@H]1O |
| 400 | CC(C)c1ccc(C(=O)NC[C@H](O[C@@H]2O[C@H](CN)[C@@H](O)[C@H]2O)[C@@H]2C[C@@H](O)[C@H](n3ccc(=O)[nH]c3=O)O2)cc1 |
| 390 | NC[C@H]1O[C@@H](O[C@@H](CNC(=O)c2ccc(C3CCCCC3)cc2)[C@@H]2C[C@@H](O)[C@H](n3ccc(=O)[nH]c3=O)O2)[C@H](O)[C@@H]1O |
| 350 | NC[C@H]1O[C@@H](O[C@@H](CN2CCC(Cc3ccccc3)CC2)[C@@H]2C[C@@H](O)[C@H](n3ccc(=O)[nH]c3=O)O2)[C@H](O)[C@@H]1O |
| 310 | NC[C@H]1O[C@@H](O[C@@H](CNCc2ccc(SC(F)(F)F)cc2)[C@@H]2C[C@@H](O)[C@H](n3ccc(=O)[nH]c3=O)O2)[C@H](O)[C@@H]1O |
| 310 | NC[C@H]1O[C@@H](O[C@@H](CNCCc2ccc(Oc3ccccc3)cc2)[C@@H]2C[C@@H](O)[C@H](n3ccc(=O)[nH]c3=O)O2)[C@H](O)[C@@H]1O |
| 300 | NC[C@H]1O[C@@H](O[C@@H](CNCc2ccc(OC(F)(F)F)cc2)[C@@H]2C[C@@H](O)[C@H](n3ccc(=O)[nH]c3=O)O2)[C@H](O)[C@@H]1O |
| 250 | NC[C@H]1O[C@@H](O[C@@H](CNC(=O)c2ccc(-c3ccccc3)cc2)[C@@H]2C[C@@H](O)[C@H](n3ccc(=O)[nH]c3=O)O2)[C@H](O)[C@@H]1O |
| 230 | CCCCCCCCCCCCN(C)C[C@H](O[C@@H]1O[C@H](CN)[C@@H](O)[C@H]1O)[C@@H]1C[C@@H](O)[C@H](n2ccc(=O)[nH]c2=O)O1 |
| 220 | NC[C@H]1O[C@@H](O[C@@H](CNCCc2cccc(C(F)(F)F)c2)[C@@H]2C[C@@H](O)[C@H](n3ccc(=O)[nH]c3=O)O2)[C@H](O)[C@@H]1O |
| 200 | NC[C@H]1O[C@@H](O[C@@H](CNC(=O)c2ccc(Oc3ccccc3)cc2)[C@@H]2C[C@@H](O)[C@H](n3ccc(=O)[nH]c3=O)O2)[C@H](O)[C@@H]1O |
| 200 | NC[C@H]1O[C@@H](O[C@@H](CNc2ccc(Oc3ccccc3)cc2)[C@@H]2C[C@@H](O)[C@H](n3ccc(=O)[nH]c3=O)O2)[C@H](O)[C@@H]1O |
| 170 | CN(Cc1ccc(-c2ccccc2)cc1)C[C@H](O[C@@H]1O[C@H](CN)[C@@H](O)[C@H]1O)[C@@H]1C[C@@H](O)[C@H](n2ccc(=O)[nH]c2=O)O1 |
| 170 | NC[C@H]1O[C@@H](O[C@@H](CNCCc2ccc(Cl)cc2)[C@@H]2C[C@@H](O)[C@H](n3ccc(=O)[nH]c3=O)O2)[C@H](O)[C@@H]1O |
| 160 | NC[C@H]1O[C@@H](O[C@@H](CNC(=O)Nc2ccc(C3CCCCC3)cc2)[C@@H]2C[C@@H](O)[C@H](n3ccc(=O)[nH]c3=O)O2)[C@H](O)[C@@H]1O |
| 140 | NC[C@H]1O[C@@H](O[C@@H](CNC(=O)Nc2ccc(Oc3ccccc3)cc2)[C@@H]2C[C@@H](O)[C@H](n3ccc(=O)[nH]c3=O)O2)[C@H](O)[C@@H]1O |
| 65 | CSCC[C@H](NC(=O)N[C@@H](Cc1cccc(O)c1)C(=O)O)C(=O)NC(C(=O)N/C=C1\C[C@@H](O)[C@H](n2ccc(=O)[nH]c2=O)O1)[C@H](C)N(C)C(=O)[C@@H](N)Cc1cccc(O)c1 (stereo not given in full) |
